Experimental data published in patent publication US20260193274A1, “AKT1 MODULATORS” (Alterome Therapeutics, Inc., priority 2022, published 2026).

Target: T1, AKT1-E17K (Homo sapiens, UniProt P31749, E17K)
T1 construct: host or cells: HEK-293 (ATCC CRL-1573)
Test: NanoBRET Target Engagement (TE) Assay
Format: cell-based
Settings: full length AKT E17K NanoLuc fusion in transfected HEK-293 cells; 2 hr equilibration with tracer and compound
Source text: NanoBRET is a highly specific and validated cell-based technique for assessing target engagement (Vasta et al., 2018, Cell Chem Biol. 25(2):206-214). The NanoBRET™ Target Engagement (TE) Intracellular Kinase Assays are based on the NanoBRET™ System (Promega Corporation), an energy transfer technique designed to measure molecular proximity in living cells. The NanoBRET™ TE Assays measure the apparent affinity of test compounds by competitive displacement of the NanoBRET™ tracer compound, which is a cell permeable molecule engineered to be reversibly bound to a NanoLuc® luciferase-kinase fusion expressed in cells. For compound screening, when a test compound binds to the selected kinase, the BRET signal is attenuated. For kinase inhibitors in particular, intracellular target selectivity is fundamental to pharmacological mechanism and allows the proteins of interest to be in the correct cellular confirmation. Although non-cell-based techniques have been developed to measure kinase binding or enzymatic inhibition with accuracy and precision, such approaches can fail to accurately predict engagement of the full-length target protein in the more complex and biologically relevant cellular context (Knight and Shokat, 2005, Chem. Biol. 12, 621-637; Smyth and Collins, 2009, J. Chem. Biol. 2, 131-151). […] Briefly, HEK-293 cells (ATCC Cat #CRL-1573) were used for transfection purposes using FuGENE HD Transfection Reagent (Promega Cat #E2311). All cells were evaluated for viability prior to transfection and optimization of the transfection was done prior to experimentation. Greater than 95% viability was used for all experiments. Following transfection, cells were washed and resuspended in Opti-MEM. NanoBRET assays were performed in white, 384-well plates (Corning) at a density of 2×10^5 cells/well. All example compounds were prepared as concentrated stock solutions in DMSO (Sigma-Aldrich). Compounds are dissolved in DMSO to make 10 mM stock solution. Example compounds were transferred as 40 μL of 10 mM stock solution to a 384 pp-plate (LABCYTE, PP-0200) and diluted in 3-fold, 10-point dilution via transferring […] by Apricot liquid handler. A Labcyte ECHO 550 compound dispenser was used to facilitate compound transfer directly to cells. Cells were equilibrated for 2 hr with energy transfer probes and example compound prior to BRET measurements. The AKTE17K (Promega Cat #NV2421) as well as specific probe (NanoBRET tracer, Promega Cat #N264B) was prepared at a concentration of 20× in tracer dilution buffer (12.5 mM HEPES, 31.25% PEG-400, pH 7.5). For target engagement analysis, the energy transfer probes were added to the cells at concentrations optimized for the target in question (AKT E17K). Following compound incubation, NanoBRET NanoGlo Substrate (Promega Cat #N157D) and Extracellular Nanoluc Inhibitor (Promega Cat #N235C) was added according to the manufacturer's recommended protocol, and luminescence was measured on Envision Reader (Perkin Elmer) Multimode Luminometer equipped with 450 nmBPfilter (donor) and 600 nmLPfilter (acceptor), using 0.5 s integration time. Milli-BRET units (mBU) are calculated by multiplying the raw BRET values by 1000. Apparent tracer affinity values (EC50) were determined using the sigmoidal dose-response (variable slope). Competitive displacement data were then plotted and data were fit to determine the EC50 value for each example compound.

T1 sequence (P31749 whole entry E17K): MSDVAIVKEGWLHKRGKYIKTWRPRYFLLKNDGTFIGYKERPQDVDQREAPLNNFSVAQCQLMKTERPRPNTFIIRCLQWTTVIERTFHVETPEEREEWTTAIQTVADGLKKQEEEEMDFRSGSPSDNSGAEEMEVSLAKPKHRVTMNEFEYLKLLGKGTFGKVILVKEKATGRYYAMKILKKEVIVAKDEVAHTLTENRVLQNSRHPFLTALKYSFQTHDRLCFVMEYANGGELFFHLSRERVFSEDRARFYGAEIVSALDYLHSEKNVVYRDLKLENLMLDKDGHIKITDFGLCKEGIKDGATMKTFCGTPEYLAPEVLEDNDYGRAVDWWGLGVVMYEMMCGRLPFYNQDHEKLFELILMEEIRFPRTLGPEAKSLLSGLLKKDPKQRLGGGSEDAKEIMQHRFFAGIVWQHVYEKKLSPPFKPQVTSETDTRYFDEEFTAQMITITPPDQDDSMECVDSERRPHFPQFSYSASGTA

Row | Structure (SMILES) | IC50 [nM]
1 | C[C@@H]1CN(Cc2ccc(-n3c(-c4cccnc4N)nc4ccc(-c5ccccc5)nc43)cc2)C[C@H](C)N1C#N [Example 36, (2S,6R)-4-(4-(2-(2-Aminopyridin-3-yl)-5-phenyl-3H-imidazo[4,5-b]pyridin-3-yl)benzyl)-2,6-dimethylpiperazine-1-carbonitrile] | > 600
2 | C[C@H]1CN(Cc2ccc(-n3c(-c4cccnc4N)nc4ccc(-c5ccccc5)nc43)cc2)C[C@H](C)N1C#N [Example 25, (2S,6S)-4-(4-(2-(2-Aminopyridin-3-yl)-5-phenyl-3H-imidazo[4,5-b]pyridin-3-yl)benzyl)-2,6-dimethylpiperazine-1-carbonitrile] | 60 to 600
3 | N#CNC1CCC2(CC1)CCN(Cc1ccc(-n3c(-c4cccnc4N)nc4ccc(-c5ccccc5)nc43)cc1)C2 (stereo not drawn) [Example 8, N-(2-(4-(2-(2-Aminopyridin-3-yl)-5-phenyl-3H-imidazo[4,5-b]pyridin-3-yl)benzyl)-2-azaspiro[4.5]decan-8-yl)cyanamide] | 60 to 600
4 | N#CNC1CCCCN(Cc2ccc(-n3c(-c4cccnc4N)nc4ccc(-c5ccccc5)nc43)cc2)C1 (stereo not drawn) [Example 31, N-(1-(4-(2-(2-Aminopyridin-3-yl)-5-phenyl-3H-imidazo[4,5-b]pyridin-3-yl)benzyl)azepan-3-yl)cyanamide] | 60 to 600
5 | N#CN1CCN(Cc2ccc(-n3c(-c4cccnc4N)nc4ccc(-c5ccccc5)nc43)cc2)CC12CC2 [Example 33, 7-(4-(2-(2-Aminopyridin-3-yl)-5-phenyl-3H-imidazo[4,5-b]pyridin-3-yl)benzyl)-4,7-diazaspiro[2.5]octane-4-carbonitrile] | 60 to 600
6 | N#CN1CCCC2(CCN(Cc3ccc(-n4c(-c5cccnc5N)nc5ccc(-c6ccccc6)nc54)cc3)CC2)C1 [Example 24, 9-(4-(2-(2-Aminopyridin-3-yl)-5-phenyl-3H-imidazo[4,5-b]pyridin-3-yl)benzyl)-2,9-diazaspiro[5.5]undecane-2-carbonitrile] | 60 to 600
7 | N#CN1CC2CCC(C1)N2Cc1ccc(-n2c(-c3cccnc3N)nc3ccc(-c4ccccc4)nc32)cc1 [Example 29, 8-(4-(2-(2-Aminopyridin-3-yl)-5-phenyl-3H-imidazo[4,5-b]pyridin-3-yl)benzyl)-3,8-diazabicyclo[3.2.1]octane-3-carbonitrile] | 15 to 60

Further lines, results first:

Row | IC50 [nM] | Structure (SMILES)
8 | < 15 | N#CN1CC[C@]2(CCN(Cc3ccc(-n4c(-c5cccnc5N)nc5ccc(-c6ccccc6)nc54)cc3)C2)C1 [Example 40, (S)-7-(4-(2-(2-Aminopyridin-3-yl)-5-phenyl-3H-imidazo[4,5-b]pyridin-3-yl)benzyl)-2,7-diazaspiro[4.4]nonane-2-carbonitrile]
9 | 15 to 60 | N#CN1CCC2(CC1)CCN(Cc1ccc(-n3c(-c4cccnc4N)nc4ccc(-c5ccccc5)nc43)cc1)CC2 [Example 17, 9-(4-(2-(2-Aminopyridin-3-yl)-5-phenyl-3H-imidazo[4,5-b]pyridin-3-yl)benzyl)-3,9-diazaspiro[5.5]undecane-3-carbonitrile]
10 | < 15 | N#CN[C@@H]1CCN(Cc2ccc(-n3c(-c4cccnc4N)nc4ccc(-c5ccccc5)nc43)cc2)C1 [Example 10, (R)—N-(1-(4-(2-(2-Aminopyridin-3-yl)-5-phenyl-3H-imidazo[4,5-b]pyridin-3-yl)benzyl)pyrrolidin-3-yl)cyanamide]
11 | 15 to 60 | [2H]C([2H])([2H])N(C#N)C1CCN(Cc2ccc(-n3c(-c4cccnc4N)nc4ccc(-c5ccccc5)nc43)cc2)CC1 [Example 41, N-(1-(4-(2-(2-Aminopyridin-3-yl)-5-phenyl-3H-imidazo[4,5-b]pyridin-3-yl)benzyl)piperidin-4-yl)-N-(methyl-d3)cyanamide]
12 | 15 to 60 | N#CN[C@H]1CCCN(Cc2ccc(-n3c(-c4cccnc4N)nc4ccc(-c5ccccc5)nc43)cc2)C1 [Example 6, (S)—N-(1-(4-(2-(2-Aminopyridin-3-yl)-5-phenyl-3H-imidazo[4,5-b]pyridin-3-yl)benzyl)piperidin-3-yl)cyanamide]
